From US10781224B2, “Bis(oxymethyl)phosphinic acid and biogenic metal salts thereof as regulators of plant growth and development” (priority 2016, dated 2020)

What was measured:
[1] = test system: winter wheat (Vershin variety); assay: Winter wheat seed treatment with BHMPA salts: germination energy and germination rate; assay type: in vivo
Method: Control—Soaking Seeds in Water;
(§1) Experimental versions—soaking seeds in BHMPA solutions and solutions of BHMPA Ca, Mg, Na, Co, Mn, Cu, and Zn salts at 1·10^−6-1·10^−12% concentrations (doses). The studies were conducted in laboratory in Petri dishes; seed bed—two layers of filter paper. 50 seeds soaked in water (control) and in the solutions of the tested compounds (experimental) were placed into each dish. Wheat, corn, and rice seeds were exposed for one hour.
Analysis was conducted according to the government standards GOST 12038-84 “Crop seeds. Technical conditions for determining the germination energy and germination rate”, GOST 12044-93 “Crop seeds. Methods for determining disease contamination.”
(§2) Seed germination energy and rate were calculated in percent as an arithmetic mean of the four experimental results (germination energy on the 4th day, wheat germination on the 8th day, rice and corn germination—on the 7th day). Germination was determined based on the germinating power indicators (length of the roots and sprouts and their wet and dry mass per 100 shoots).
(§3) The effect of pre-sowing seed treatment with the claimed BHMPA salts of biogenic metals was studied on winter wheat (Vershin variety), corn (Krasnodar 385 MV variety), and rice (Diamant variety).

[2] = test system: corn (Krasnodar 385 MV variety); assay: Corn seed treatment with BHMPA salts: germinating power; assay type: in vivo
Method: as §1, §2, §3
The above data describe the seed viability only at the initial stage of germination, while the germination ability at the later stage of germination is defined by the initial germinating power. The method for the determination of the germinating power comprises measuring the height of the sprouts and primary roots, as well as the biomass and the dry mass thereof per 100 seedlings. [M. A. Kartuzova. Initial Germinating Power as Method of Biological Assessment of Seed Quality. Selection and Seed Farming, #2, 1953].

[3] = winter wheat Vershin, 1·10^−6% solution
[4] = winter wheat Vershin, 1·10^−7% solution
[5] = winter wheat Vershin, 1·10^−8% solution
[6] = winter wheat Vershin, 1·10^−9% solution
[7] = winter wheat Vershin, 1·10^−10% solution
[8] = winter wheat Vershin, 1·10^−11% solution
[9] = winter wheat Vershin, 1·10^−12% solution
[10] = winter wheat, comparative study vs Melaphen, 1·10^−12% solution
[11] = corn seeds, solution concentration 1 · 10^−10%

O=P([O-])(CO)CO.O=P([O-])(CO)CO.[Ca+2] [Ca-salt, Calcium BHMPA Salt]
Germination energy [1, 3]: 85.3%
Germination rate [1, 3]: 88.0%
Germination energy [1, 4]: 90.8%
Germination rate [1, 4]: 94.3%
Germination energy [1, 5]: 80.9%
Germination rate [1, 5]: 84.0%
Germination energy [1, 6]: 81.2%
Germination rate [1, 6]: 85.3%
Germination energy [1, 7]: 86.1%
Germination rate [1, 7]: 88.0%
Germination energy [1, 8]: 87.0%
Germination rate [1, 8]: 89.3%
Germination energy [1, 9]: 88.9%
Germination rate [1, 9]: 92.0%
Germination energy [1, 10]: 87.0%
Germination rate [1, 10]: 93.7%
optimum concentration for treating corn seeds before sowing ([2]; corn): 1·10^−10%
Length, root [2, 11]: 6.6 cm
Length, root, + % to control [2, 11]: 12%
Length, sprout [2, 11]: 3.2 cm
Length, sprout, + % to control [2, 11]: 18.5%
Mass, dry, root [2, 11]: 2.03 g/100 plantlings
Mass, dry, root, + % to control [2, 11]: 15%
Mass, dry, sprout [2, 11]: 1.47 g/100 plantlings
Mass, dry, sprout, + % to control [2, 11]: 8%
Mass, wet, root [2, 11]: 9.63 g/100 plantlings
Mass, wet, root, + % to control [2, 11]: 10%
Mass, wet, sprout [2, 11]: 8.59 g/100 plantlings
Mass, wet, sprout, + % to control [2, 11]: 21%
Length, root ([2]; corn, 1·10^−6% solution): 4.2 cm
Length, root, + % to control ([2]; corn, 1·10^−6% solution): −7%
Length, sprout ([2]; corn, 1·10^−6% solution): 2.5 cm
Length, sprout, + % to control ([2]; corn, 1·10^−6% solution): −4%
Mass, dry, root ([2]; corn, 1·10^−6% solution): 1.09 g/100 plantlings
Mass, dry, root, + % to control ([2]; corn, 1·10^−6% solution): −2%
Mass, dry, sprout ([2]; corn, 1·10^−6% solution): 0.63 g/100 plantlings
Mass, dry, sprout, + % to control ([2]; corn, 1·10^−6% solution): −9%
Mass, wet, root ([2]; corn, 1·10^−6% solution): 7.30 g/100 plantlings
Mass, wet, root, + % to control ([2]; corn, 1·10^−6% solution): −2.5%
Mass, wet, sprout ([2]; corn, 1·10^−6% solution): 4.21 g/100 plantlings
Mass, wet, sprout, + % to control ([2]; corn, 1·10^−6% solution): −6%
difference from the control in germinating power ([2]; corn, 1·10^−6%, 1·10^−7% and 1·10^−12% solutions): rather insignificant
Length, root ([2]; corn, 1·10^−7% solution): 4.6 cm
Length, root, + % to control ([2]; corn, 1·10^−7% solution): 2%
Length, sprout ([2]; corn, 1·10^−7% solution): 2.7 cm
Length, sprout, + % to control ([2]; corn, 1·10^−7% solution): 4%
Mass, dry, root ([2]; corn, 1·10^−7% solution): 1.20 g/100 plantlings
Mass, dry, root, + % to control ([2]; corn, 1·10^−7% solution): 8%
Mass, dry, sprout ([2]; corn, 1·10^−7% solution): 0.72 g/100 plantlings
Mass, dry, sprout, + % to control ([2]; corn, 1·10^−7% solution): 4%
Mass, wet, root ([2]; corn, 1·10^−7% solution): 7.75 g/100 plantlings
Mass, wet, root, + % to control ([2]; corn, 1·10^−7% solution): 3%
Mass, wet, sprout ([2]; corn, 1·10^−7% solution): 4.67 g/100 plantlings
Mass, wet, sprout, + % to control ([2]; corn, 1·10^−7% solution): 5%
Length, root ([2]; corn, 1·10^−8% solution): 4.8 cm
Length, root, + % to control ([2]; corn, 1·10^−8% solution): 7%
Length, sprout ([2]; corn, 1·10^−8% solution): 2.8 cm
Length, sprout, + % to control ([2]; corn, 1·10^−8% solution): 8%
Mass, dry, root ([2]; corn, 1·10^−8% solution): 1.24 g/100 plantlings
Mass, dry, root, + % to control ([2]; corn, 1·10^−8% solution): 12%
Mass, dry, sprout ([2]; corn, 1·10^−8% solution): 0.85 g/100 plantlings
Mass, dry, sprout, + % to control ([2]; corn, 1·10^−8% solution): 23%
Mass, wet, root ([2]; corn, 1·10^−8% solution): 8.13 g/100 plantlings
Mass, wet, root, + % to control ([2]; corn, 1·10^−8% solution): 8.5%
Mass, wet, sprout ([2]; corn, 1·10^−8% solution): 4.84 g/100 plantlings
Mass, wet, sprout, + % to control ([2]; corn, 1·10^−8% solution): 8.5%
